Results: patent US20250339492A1, “METHOD OF TREATING OR PREVENTING AN ADVERSE SECONDARY NEUROLOGICAL OUTCOME FOLLOWING A HAEMORRHAGIC STROKE” (CSL BEHRING AG, priority 2021, published 2025)
“Also recorded” adds a separate entry of the source.

B1: heme:Hx: heme-hemopexin complex (1 mM) injected into striatum (protein, UniProt P02790 24-462, looked up)
Hemopexin: TPLPPTSAHGNVAEGETKPDPDVTERCSDGWSFDATTLDDNGTMLFFKGEFVWKSHKWDRELISERWKNFPSPVDAAFRQGHNSVFLIKGDKVWVYPPEKKEKGYPKLLQDEFPGIPSPLDAAVECHRGECQAEGVLFFQGDREWFWDLATGTMKERSWPAVGNCSSALRWLGRYYCFQGNQFLRFDPVRGEVPPRYPRDVRDYFMPCPGRGHGHRNGTGHGNSTHHGPEYMRCSPHLVLSALTSDNHGATYAFSGTHYWRLDTSRDGWHSWPIAHQWPQGPSAVDAAFSWEEKLYLVQGTQVYVFLTKGGYTLVSGYPKRLEKEVGTPHGIILDSVDAAFICPGSSRLHIMAGRRLWWLDLKSGAQATWTELPWPHEKVDGALCMEKSLGPNSCSANGPGLYLIHGPNLYCYSDVEKLNAAKALPQPQNVTSLLGCTH
modifications: heme complex
notes: heme-hemopexin complex (1 mM) injected into striatum

Legend:
[1] = system: C57BL/6J mice; experiment: striatal injection model, MRI (T2, ASL, DWI); format: in vivo; settings: for quantification of edema size and perfusion: 24, 48 and 72 hours after striatal injection, n=4 per group, FIG. 14; for radiological changes (T2, ADC map, ASL): 24 hours after striatal injection, FIG. 13
From the text: (§1) Wild-type male C57BL/6J mice (10-12 weeks) were obtained from Charles River (Sulzfeld, Germany) and maintained at the animal facility of the University of Zurich (LASC) and treated in accordance with the guidelines of the Swiss Federal Veterinary Office.
(§2) Mice were anesthetized with isoflurane (4-5% for induction, 1-2% for maintenance; Baxter Healthcare Co. Deerfield, IL, USA) evaporated in 100% oxygen. Throughout the surgical procedure, body temperature was monitored with a rectal probe and maintained constant with the use of an electronic thermostat-controlled warming blanket. Anesthetized mice were placed in a motorized stereotaxic frame (Stoelting, Dublin, Ireland) and a 1 cm long midline skin incision was made. After removal of the soft tissue covering the skull, the frame referenced to bregma and a small burrhole was drilled above the entry point for the target. Then a 33G needle was slowly advanced (0.1 mm/s) into the striatum (bregma coordinates: 2 mm ML, 0.5 mm AP, 3.5 mm DV) followed by injection of 10 μL heme-albumin (1 mM), haptoglobin (5 mM) (protein control group) or heme-hemopexin (1 mM) with an infusion rate of 100 nl/s. The needle was left in place for 5 minutes, then removed slowly and the skin incision was closed with a suture. After the surgical procedure, the animals were placed in a heated wake up box and monitored until they were fully recovered and could be transferred back to their homecage.
Mice were anesthetized with isoflurane (4-5% for induction, 1-2% for maintenance; Baxter Healthcare Co. Deerfield, IL, USA) evaporated in 100% oxygen. Throughout the imaging procedure, body temperature was monitored with a rectal probe and maintained constant with the use of a warming blanket and respiratory rate was recorded by plethysmography. Mice were placed into a 7 T small animal MRI scanner (Brucker, Germany). T2, ASL and DWI images were recorded according to a standardized protocol.

[2] = system: C57BL/6J mice; experiment: striatal injection model, behavioural testing (open field, rotarod, beam walk); format: in vivo; settings: 24 hours after striatal injection of 10 μL, 1 mM; n=6 per group; FIG. 12
From the text: as §1
as §2, with “The needle was left in place for 5 minutes, then removed slowly and the skin incision was closed with a suture.” left out
The open field exploration tests were conducted in four identical square arenas (40×40×35 cm high) made of opaque acrylic glass, located in a testing room under diffused lighting (approximately 35 Ix as measured in the center of the arenas). […] The total distance moved during 10 minutes (in cm), beginning after a 5 minutes acclimatization phase was measured.
For the rotarod behavioural testing the mice are placed on a rotating cylinder and therefore forced to walk. […] The time until the mice fall off the cylinder is measured.
For discrete neurological deficits, mice were subjected to a beam walk test. […] During the assessment, the motor function was scored by two investigators blinded to treatment.

[3] = system: porcine basilar arteries; experiment: vascular function assay, porcine basilar arteries pre-contracted with PGF2α
Experimental: The vascular function assay (FIG. 7E) was performed using fresh porcine basilar arteries obtained from a local abattoir (n=12). Vessels were pre stretched to reach 8 the optimal passive pretension as previously published (Hugelshofer et al., 2020). Then, 10 μM prostaglandin F2α (PGF2α; Sigma, Buchs, Switzerland) was used as a pre-contracting agent. In order to determine the maximum possible tension in absence of endogenous NO, L-N5-(1-Iminoethyl) ornithine hydrochloride (L-NIO; Sigma-Aldrich, Saint Louis, US-MO) at a concentration of 10 μM was added at the end of the experiment. The recorded tension was normalized to the individual NO reserve capacity of the respective vessel, i.e. the baseline tension after addition of PGF2α (0%) and the tension after addition of L-NIO at the end of the experiment (100%) (FIG. 7F). Damaged vessels with a continuous loss in tension over the duration of the experiment, resulting in a PGF2α max/L-NIO max ratio below 0.7, were excluded from the analysis (FIG. 7F). A first series of experiments was conducted to evaluate the vasoconstrictive potential of the patient CSF in the high-risk phase for SAH-SBI after aSAH and to assess the specific role of oxyHb in this process. […] In a second series of experiments, the influence of an increasing exposure to Hb on the vascular tension was assessed. […]

[4] = target: T1, CSF-Hb (Homo sapiens, UniProt P68871+P69905); experiment: oxidative potential of patient CSF after aSAH (TBARS, MDA formation) with addition of Hp or hemopexin; format: biochemical; settings: added at equimolar concentration, patient CSF of high risk phase week 0.5-2, FIG. 5D
T1 construct: from tissue; host or cells: cerebrospinal fluid of patients after aSAH (high-risk phase, week 0.5-2)
T1 sequence (P69905 2-142 limits assumed): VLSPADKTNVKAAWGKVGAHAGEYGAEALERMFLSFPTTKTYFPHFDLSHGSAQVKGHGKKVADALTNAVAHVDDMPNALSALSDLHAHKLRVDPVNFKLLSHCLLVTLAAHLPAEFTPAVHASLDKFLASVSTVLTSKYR
T1 sequence (P68871 2-147 limits assumed): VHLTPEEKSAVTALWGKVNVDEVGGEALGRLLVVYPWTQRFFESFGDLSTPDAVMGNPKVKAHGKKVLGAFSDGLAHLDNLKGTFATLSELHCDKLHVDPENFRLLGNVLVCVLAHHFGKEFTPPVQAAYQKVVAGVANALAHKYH
Experimental: Hb used in ex vivo experiments was purified from expired human blood concentrates as previously described (Elmer et al., 2009). Hb concentrations were determined by spectral deconvolution as described above and are given as molar concentrations of total heme (1 M Hb tetramer is equivalent to 4 M heme). Hx was used in equimolar concentration to the concentration of heme measured in the test sample. For all Hb used in these studies, the fraction of ferrous oxyHb (HbFe2+O2) was always greater than 98% as determined by spectrophotometry. Purified haptoglobin (phenotype 1-1) and hemopexin from human plasma was obtained from CSL Behring.
The oxidative potential of CSF samples was quantified by measuring the formation of malondialdehyde (MDA) as the final product of lipid peroxidation after incubation with a well-defined reconstituted lipoprotein (rLP, obtained from CSL Behring, Bern, Switzerland) (FIG. 7G). Using a 96-well plate, 25 μL CSF were mixed with 5 μL rLP (3 mg/mL) and incubated at 37° C. for 24 hours. Subsequently, the concentration of MDA was measured using a thiobarbituric acid reactive substance (TBARS) assay. In short 125 μL of 750 mM trichloroacetic acid in 1 M HCl was added to the samples, followed by short vortexing and subsequent addition of 100 μL 25 mM 2-thiobarbituric acid in 1 M NaOH.
After an incubation period at 80° for 60 min, the TBARS in the supernatant were quantified. For absolute quantification of MDA, the absorption at 600 nm was subtracted from the absorption at 532 nm and the concentration was calculated with the molar extinction 9 coefficient of […]. To achieve a more sensitive but relative quantification, the fluorescence emission was measured at 550 nm, using 510 nm as excitation wavelength.

[5] = formation of heme:Hx complexes in the CSF; settings: cell-free heme within the subarachnoid space
[6] = read-out: ability to bind heme with high affinity (Kd); cited from earlier work

Molecule	quantification of edema size and perfusion [1]	neurological function (open-field, rotarod, beamwalk testing) [2]	MDA formation (lipid peroxidation) [4]	other results
C=CC1=C(C)c2cc3[n-]c(cc4[n-]c(cc5nc(cc1n2)C(C)=C5C=C)c(C)c4CCC(=O)O)c(CCC(=O)O)c3C.[Fe+2] [heme]	formation of a cerebral edema and a regionally decreased perfusion	impaired neurological function; also recorded: impaired neurobehavioral function	–	radiological changes (T2, ADC map, ASL) [1]: perilesional edema, a diffusion restriction in the ADC map and a focal perfusion deficit
Hp1-1: Purified haptoglobin (phenotype 1-1) from human plasma obtained from CSL Behring	–	–	effectively attenuated MDA formation	contractile force of basilar arteries (anti-vasospastic effect) ([3]; Hb dose escalation with equimolar haptoglobin, repeated measures ANOVA p<0.001, FIG. 5C): significantly attenuated the contractile force; MDA formation (lipid peroxidation) ([4]; listed as haptoglobin): partial inhibition
hemopexin: Purified hemopexin from human plasma obtained from CSL Behring; heme-scavenger protein	–	abrogates the heme-mediated impairment of neurological function	even stronger attenuation of MDA formation; also recorded: virtually blocked the formation of MDA; also recorded: surpassed the antioxidant function of haptoglobin	period of exposure sufficient to form detectable heme:Hx complexes in the CSF [5]: at least 2 minutes; Kd [6]: < 1 pM
oxyHb: Hb purified from expired human blood concentrates; fraction of ferrous oxyHb greater than 98% [reference compound]	–	–	–	oxyHb concentration reaching maximum contraction ([3]; FIG. 4A): 10^−5 M
B1	absent	no impairment in neurobehavioral activity	–	radiological changes (T2, ADC map, ASL) ([1]; listed as heme:Hpx): only minor radiological changes; also recorded: largely absent
